Results published in BindingDB's records for doi:10.1016/j.ejmech.2018.08.073 (Indian Csir-Central Drug Research Institute, 2018).
pIC50: −log10 of the molar value.

Target: T1, Histone deacetylase 6 (Homo sapiens, UniProt Q9UBN7)
T1 sequence (Q9UBN7 whole entry): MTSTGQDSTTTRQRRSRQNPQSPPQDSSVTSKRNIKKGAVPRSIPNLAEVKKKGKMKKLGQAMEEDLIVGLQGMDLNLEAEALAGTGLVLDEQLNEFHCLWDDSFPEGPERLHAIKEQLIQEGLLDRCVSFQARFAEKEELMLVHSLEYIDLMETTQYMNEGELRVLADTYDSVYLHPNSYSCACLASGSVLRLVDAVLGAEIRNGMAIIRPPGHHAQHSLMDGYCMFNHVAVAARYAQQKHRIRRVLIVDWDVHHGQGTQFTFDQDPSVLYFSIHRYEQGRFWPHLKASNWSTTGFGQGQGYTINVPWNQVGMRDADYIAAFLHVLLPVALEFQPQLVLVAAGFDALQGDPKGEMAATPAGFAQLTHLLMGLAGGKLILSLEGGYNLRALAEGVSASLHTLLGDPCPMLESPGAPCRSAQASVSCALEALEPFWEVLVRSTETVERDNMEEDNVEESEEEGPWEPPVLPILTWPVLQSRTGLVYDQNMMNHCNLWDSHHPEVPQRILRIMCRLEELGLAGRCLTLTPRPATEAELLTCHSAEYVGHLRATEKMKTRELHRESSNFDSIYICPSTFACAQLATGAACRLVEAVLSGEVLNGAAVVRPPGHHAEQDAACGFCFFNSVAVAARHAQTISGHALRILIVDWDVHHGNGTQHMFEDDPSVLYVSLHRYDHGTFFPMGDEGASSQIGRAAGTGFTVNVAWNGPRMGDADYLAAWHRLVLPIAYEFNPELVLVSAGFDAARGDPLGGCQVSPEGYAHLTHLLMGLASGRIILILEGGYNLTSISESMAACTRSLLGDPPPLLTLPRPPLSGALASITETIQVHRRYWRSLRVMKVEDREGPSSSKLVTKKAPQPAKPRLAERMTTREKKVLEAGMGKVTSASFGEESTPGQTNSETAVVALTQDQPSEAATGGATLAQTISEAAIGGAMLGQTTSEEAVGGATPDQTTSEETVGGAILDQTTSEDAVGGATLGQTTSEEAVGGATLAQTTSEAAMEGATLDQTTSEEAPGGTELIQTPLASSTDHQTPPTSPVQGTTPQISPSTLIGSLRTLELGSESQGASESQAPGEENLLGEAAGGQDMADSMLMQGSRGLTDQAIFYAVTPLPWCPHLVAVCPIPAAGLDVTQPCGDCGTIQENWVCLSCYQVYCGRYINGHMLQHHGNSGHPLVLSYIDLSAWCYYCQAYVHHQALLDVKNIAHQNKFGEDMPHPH
Assay: Inhibition of recombinant full-length human N-terminal GST-tagged HDAC6 expressed in baculovirus infected Sf9 insect cells using fluorescent-labelled Arg-His-Lys-Lys(Ac) as substrate measured after 2 hrs by fluorescence assay

pIC50: 8.82
Compound: Cc1c(CN)c2ccccc2n1-c1ccc(C(=O)NO)cc1
